Converted amounts (≈) assume the structure as drawn. Where two headings read alike, the source gives them in different places.
Columns and labels:
[1] = target: P. aeruginosa LpxC (Pseudomonas aeruginosa (strain ATCC 15692 / DSM 22644 / CIP 104116 / JCM 14847 / LMG 12228 / 1C / PRS 101 / PAO1), UniProt P47205); assay: P. aeruginosa LpxC Inhibition Assay; type: biochemical; details: 2 μM substrate, LC-MS/MS
Summary of the method: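 Compounds pre-incubated 30 min at room temperature with 1 nM LpxC, then 2 μM UDP-3-O-(R-3-hydroxydecanoyl)-GlcNAc added; 20 min reaction in 50 mM sodium phosphate pH 7.5, 0.005% Triton X-100, quenched with HOAc. Product quantified by LC-MS/MS against calibration curve; IC50 from four-parameter logistic fit.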

[2] = system: P. aeruginosa PAO1; assay: Susceptibility Testing (MIC, broth microdilution); type: cell-based, Pseudomonas aeruginosa; details: P. aeruginosa PAO1, broth microdilution, 20 hours; for MIC: Pseudomonas aeruginosa, PAO1, 20 h, read-out: PAO1 MIC
Summary of the method: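 Broth microdilution per CLSI in cation-adjusted Mueller-Hinton broth, inoculum ~5×10^5 CFU/mL, two-fold compound dilutions (1% DMSO final). Plates incubated 20 h in ambient air at 35° C. MIC is the lowest concentration preventing visible growth, confirmed by OD 600 nm reading.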

[3] = 1 nM P. aeruginosa LpxC, read-out: PA LpxC IC50

Compound: C[C@@](C[C@H]1CC(c2ccc(-c3ccc(CCO)cc3)c(F)c2)=NO1)(C(=O)NO)S(C)(=O)=O [Compound 102, (R)-3-((R)-3-(2-fluoro-4′-(2-hydroxyethyl)-[1,1′-biphenyl]-4-yl)-4,5-dihydroisoxazol-5-yl)-N-hydroxy-2-methyl-2-(methylsulfonyl)]
- IC50 [1, 3]: < 0.5 nM
- MIC [2]: 0.18 µg/mL (≈ 0.388 µM)

Compound: C[C@@](C[C@H]1CC(c2ccc(-c3ccc(CO)cc3)c(F)c2)=NO1)(C(=O)NO)S(C)(=O)=O [Compound 103, (R)-3-((R)-3-(2-fluoro-4′-(hydroxymethyl)-[1,1′-biphenyl]-4-yl)-4,5-dihydroisoxazol-5-yl)-N-hydroxy-2-methyl-2-(methylsulfonyl)propanamide]
- IC50 [1, 3]: 0.6 nM
- MIC [2]: 0.18 µg/mL (≈ 0.4 µM)

Compound: C[C@@](C[C@H]1CC(c2ccc(-c3ccc(CC#N)cc3)c(F)c2)=NO1)(C(=O)NO)S(C)(=O)=O [Compound 104, (R)-3-((R)-3-(4′-(cyanomethyl)-2-fluoro-[1,1′-biphenyl]-4-yl)-4,5-dihydroisoxazol-5-yl)-N-hydroxy-2-methyl-2-(methylsulfonyl)propanamide]
- IC50 [1, 3]: 0.5 nM
- MIC [2]: 0.125 µg/mL (≈ 0.272 µM)

Compound: Cn1ccc(-c2ccc(C3=NO[C@@H](C[C@](C)(C(=O)NO)S(C)(=O)=O)C3)cc2F)cc1=O [Compound 108, (R)-3-((R)-3-(3-fluoro-4-(1-methyl-2-oxo-1,2-dihydropyridin-4-yl)phenyl)-4,5-dihydroisoxazol-5-yl)-N-hydroxy-2-methyl-2-(methylsulfonyl)propanamide]
- IC50 ([1]; PA LpxC IC50, 1 nM P. aeruginosa LpxC): 2 nM
- MIC [2]: 8 µg/mL (≈ 17.7 µM)

Compound: CC(C)(O)c1ccc(-c2ccc(C3=NO[C@@H](C[C@](C)(C(=O)NO)S(C)(=O)=O)C3)cc2F)cc1 [Compound 110, (R)-3-((R)-3-(2-fluoro-4′-(2-hydroxypropan-2-yl)-[1,1′-biphenyl]-4-yl)-4,5-dihydroisoxazol-5-yl)-N-hydroxy-2-methyl-2-(methylsulfonyl)propanamide]
- IC50 [1, 3]: < 0.5 nM
- MIC [2]: 0.5 µg/mL (≈ 1.04 µM)

Compound: C[C@@](C[C@H]1CC(c2ccc(-c3ccncc3C(F)(F)F)cc2)=NO1)(C(=O)NO)S(C)(=O)=O [Compound 111, (R)—N-hydroxy-2-methyl-2-(methylsulfonyl)-3-((R)-3-(4-(3-(trifluoromethyl)pyridin-4-yl)phenyl)-4,5-dihydroisoxazol-5-yl)propanamide]
- IC50 [1, 3]: < 0.5 nM
- MIC [2]: 1 µg/mL (≈ 2.12 µM)

Compound: CC(C)c1cc(-c2ccc(C3=NO[C@@H](C[C@](C)(C(=O)NO)S(C)(=O)=O)C3)cc2F)ccn1 [Compound 112, (R)-3-((R)-3-(3-fluoro-4-(2-isopropylpyridin-4-yl)phenyl)-4,5-dihydroisoxazol-5-yl)-N-hydroxy-2-methyl-2-(methylsulfonyl)propanamide]
- IC50 [1, 3]: < 0.5 nM
- MIC [2]: 1 µg/mL (≈ 2.16 µM)

Compound: COc1ccc(-c2ccc(C3=NO[C@@H](C[C@](C)(C(=O)NO)S(C)(=O)=O)C3)cc2F)c(C)c1 [Compound 113, (R)-3-((R)-3-(2-fluoro-4′-methoxy-2′-methyl-[1,1′-biphenyl]-4-yl)-4,5-dihydroisoxazol-5-yl)-N-hydroxy-2-methyl-2-(methylsulfonyl)propanamide]
- IC50 [1, 3]: < 0.5 nM
- MIC [2]: 0.71 µg/mL (≈ 1.53 µM)

Compound: C[C@@](C[C@H]1CC(c2ccc(-c3ccc(-c4nn[nH]n4)cc3)c(F)c2)=NO1)(C(=O)NO)S(C)(=O)=O [Compound 114, (R)-3-((R)-3-(2-fluoro-4′-(2H-tetrazol-5-yl)-[1,1′-biphenyl]-4-yl)-4,5-dihydroisoxazol-5-yl)-N-hydroxy-2-methyl-2-(methylsulfonyl)propanamide]
- IC50 [1, 3]: < 0.5 nM
- MIC [2]: 32 µg/mL (≈ 65.5 µM)

Compound: C[C@@H](O)Cc1ccc(-c2ccc(C3=NO[C@@H](C[C@](C)(C(=O)NO)S(C)(=O)=O)C3)cc2F)c(F)c1 [Compound 115, (R)-3-((R)-3-(2,2′-difluoro-4′-((R)-2-hydroxypropyl)-[1,1′-biphenyl]-4-yl)-4,5-dihydroisoxazol-5-yl)-N-hydroxy-2-methyl-2-(methylsulfonyl)propanamide]
- IC50 [1, 3]: < 0.5 nM
- MIC [2]: 1 µg/mL (≈ 2.01 µM)

Compound: C[C@@H](O)Cc1cc(F)c(-c2ccc(C3=NO[C@@H](C[C@](C)(C(=O)NO)S(C)(=O)=O)C3)cc2F)c(F)c1 [Compound 116, (R)—N-hydroxy-2-methyl-2-(methylsulfonyl)-3-((R)-3-(2,2′,6′-trifluoro-4′-((R)-2-hydroxypropyl)-[1,1′-biphenyl]-4-yl)-4,5-dihydroisoxazol-5-yl) propanamide]
- IC50 [1, 3]: < 0.5 nM
- MIC [2]: 0.5 µg/mL (≈ 0.972 µM)

Compound: C[C@@](C[C@H]1CC(c2ccc(-c3ccncc3F)c(F)c2)=NO1)(C(=O)NO)S(C)(=O)=O [Compound 117, (R)-3-((R)-3-(3-fluoro-4-(3-fluoropyridin-4-yl)phenyl)-4,5-dihydroisoxazol-5-yl)-N-hydroxy-2-methyl-2-(methylsulfonyl)propanamide]
- IC50 [1, 3]: < 0.5 nM
- MIC [2]: 0.35 µg/mL (≈ 0.796 µM)

Compound: Cc1cc(-c2ccc(C3=NO[C@@H](C[C@](C)(C(=O)NO)S(C)(=O)=O)C3)cc2F)cc(C)n1 [Compound 118, (R)-3-((R)-3-(4-(2,6-dimethylpyridin-4-yl)-3-fluorophenyl)-4,5-dihydroisoxazol-5-yl)-N-hydroxy-2-methyl-2-(methylsulfonyl)propanamide]
- IC50 [1, 3]: 4 nM
- MIC [2]: 4 µg/mL (≈ 8.9 µM)

Compound: C[C@@](C[C@H]1CC(c2ccc(-c3ccncc3F)cc2F)=NO1)(C(=O)NO)S(C)(=O)=O [Compound 119, (R)-3-((R)-3-(2-fluoro-4-(3-fluoropyridin-4-yl)phenyl)-4,5-dihydroisoxazol-5-yl)-N-hydroxy-2-methyl-2-(methylsulfonyl)propanamide]
- IC50 [1, 3]: < 0.5 nM
- MIC [2]: 0.71 µg/mL (≈ 1.62 µM)

Compound: CCc1ccc(C2=NO[C@@H](C[C@](C)(C(=O)NO)S(C)(=O)=O)C2)c(F)c1 [Compound 120, (R)-3-((R)-3-(4-ethyl-2-fluorophenyl)-4,5-dihydroisoxazol-5-yl)-N-hydroxy-2-methyl-2-(methylsulfonyl)propanamide]
- IC50 [1, 3]: 0.6 nM
- MIC [2]: 0.5 µg/mL (≈ 1.34 µM)

Compound: Cc1cc(C2=NO[C@@H](C[C@](C)(C(=O)NO)S(C)(=O)=O)C2)ccc1-c1ccc(C[C@@H](C)O)cc1 [Compound 121, (R)—N-hydroxy-3-((R)-3-(4′-((R)-2-hydroxypropyl)-2-methyl-[1,1′-biphenyl]-4-yl)-4,5-dihydroisoxazol-5-yl)-2-methyl-2-(methylsulfonyl)propanamide]
- IC50 [1, 3]: < 0.5 nM
- MIC [2]: 0.5 µg/mL (≈ 1.05 µM)

Compound: C[C@@H](O)Cc1ccc(-c2c(F)cc(C3=NO[C@@H](C[C@](C)(C(=O)NO)S(C)(=O)=O)C3)cc2F)cc1 [Compound 122, (R)-3-((R)-3-(2,6-difluoro-4′-((R)-2-hydroxypropyl)-[1,1′-biphenyl]-4-yl)-4,5-dihydroisoxazol-5-yl)-N-hydroxy-2-methyl-2-(methylsulfonyl)propanamide]
- IC50 [1, 3]: < 0.5 nM
- MIC [2]: 0.5 µg/mL (≈ 1.01 µM)

Compound: CC#Cc1ccc(C2=NO[C@@H](C[C@](C)(C(=O)NO)S(C)(=O)=O)C2)c(F)c1 [Compound 123, (R)-3-((R)-3-(2-fluoro-4-(prop-1-yn-1-yl)phenyl)-4,5-dihydroisoxazol-5-yl)-N-hydroxy-2-methyl-2-(methylsulfonyl)propanamide]
- IC50 [1, 3]: < 0.5 nM
- MIC [2]: 0.25 µg/mL (≈ 0.654 µM)

Compound: (R)-3-((R)-3-(2-fluoro-4′-((R)-2-hydroxypropyl)-[1,1′-biphenyl]-4-yl)-4,5-dihydroisoxazol-5-yl)-N-hydroxy-2-methyl-2-(methylsulfonyl)propanamide [Compound 107]
- IC50 [1, 3]: 0.5 nM
- PAO1 MIC [2]: 0.25 µg/mL

Source: US9718792B2, “Isoxazoline hydroxamic acid derivatives as LpxC inhibitors” (priority 2014, dated 2017)
